Series [1] can be described thus: ED50 and therapeutic index, comparative characteristics of Anticanum and Taxotere. Type of series: in vivo.
Series [2] in a line: Average lethal intravenous dose in rats. Conditions: both, rat, in vivo.
Excerpt: The calculation of the average lethal dose was made according to B. M. Shtabskiy's methods with the use of the equation:
where: • X1 and X2 are the values of the two extreme of the three doses studied that have an effect on more or less than 50% of the animals; the third dose is the intermediate; • Y1 ? Y2 are the lethality percentages corresponding to doses X1 and X2; • ΣY— is the sum of the three doses studied; the number of doses used in the calculations is equal to 3.
Then d, the average margin of error for the average lethal dose was found through use of the Miller-Tainter formula:
N is the total number of animals in the groups in which even one animal died or survived, and the confidence ranges were established.

What is called ED50 is the midpoint of the dose-response relation. A lower ED50 goes with greater potency. In general, LD50 refers to the dose expected to kill half of the subjects tested. Low values mean greater toxicity, high ones lower toxicity. Molecule `CC(=O)O[C@@]12CO[C@@H]1C[C@H](O)[C@@]1(C)C(=O)[C@H](O)C3=C(C)[C@@H](OC(=O)[C@H](O)[C@@H](NC(=O)OC(C)(C)C)c4ccccc4)C[C@@](O)([C@@H](OC(=O)c4ccccc4)[C@H]21)C3(C)C` [Taxotere] displayed an ED50 in series [1] of 0.035 mg/kg. Moreover, the LD50 in series [2] stood at 0.12 mg/kg.
